# Measurements taken from patent US20210000912A1, “Compositions And Methods For Prophylaxis Or Treatment Of Pain” (Interk Peptide Therapeutics Limited, priority 2017, published 2021).
# Where two headings read alike, the source gives them in different places. Non-standard residues stand in square brackets, D forms with d. Residues, ends and D or L forms follow the SMILES beside them. No end group written: not given here. Orn = NCCC[C@H](N)C(=O)O
# Assays:
# Format in all cases: biochemical
# [1] = target: T1, PKG1β (h) (Homo sapiens, UniProt Q13976); assay: PKG1β kinase activity assay, cell free
# T1 construct: purchased Eurofins Pharma Discovery Services UK Ltd (contract assay service)
# T1 sequence (Q13976 1-686 isoform Q13976-2): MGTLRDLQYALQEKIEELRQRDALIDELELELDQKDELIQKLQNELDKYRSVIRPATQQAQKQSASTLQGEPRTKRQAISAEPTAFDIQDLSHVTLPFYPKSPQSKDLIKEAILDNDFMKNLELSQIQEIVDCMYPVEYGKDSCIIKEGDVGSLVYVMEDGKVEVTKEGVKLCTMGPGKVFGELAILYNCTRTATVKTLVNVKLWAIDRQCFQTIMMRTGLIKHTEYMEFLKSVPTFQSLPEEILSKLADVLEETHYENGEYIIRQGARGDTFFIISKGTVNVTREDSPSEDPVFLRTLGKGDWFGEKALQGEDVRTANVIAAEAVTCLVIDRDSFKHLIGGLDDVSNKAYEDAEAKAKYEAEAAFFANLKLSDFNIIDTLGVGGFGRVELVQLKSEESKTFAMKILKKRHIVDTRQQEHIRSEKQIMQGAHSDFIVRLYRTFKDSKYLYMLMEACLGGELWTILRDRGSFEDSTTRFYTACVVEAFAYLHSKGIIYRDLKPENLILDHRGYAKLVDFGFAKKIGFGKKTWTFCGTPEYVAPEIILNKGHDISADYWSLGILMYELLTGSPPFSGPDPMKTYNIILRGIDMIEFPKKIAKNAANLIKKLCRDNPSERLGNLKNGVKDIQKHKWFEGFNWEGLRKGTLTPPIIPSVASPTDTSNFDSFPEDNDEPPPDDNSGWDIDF
# Protocol: (§1) The capacity of test peptides to inhibit the activity of the kinases PKG1α, PKG1β, and Src family kinases in a cell free assay was assessed. The test peptides were amidated at their C-terminal end (indicated by “—NH2”) unless otherwise noted. Kinase activity assays were conducted by Eurofins Pharma Discovery Services UK Ltd (Dundee Technology Park, Dundee, United Kingdom) and Reaction Biology Corp. (Malvern, Pa., USA).
# (§2) All test peptides are prepared to 50× final assay concentration in 100% DMSO. This working stock of the test compound is added to assay wells as the first component in the reaction, followed by the remaining components of the respective assay protocols described below. There is no pre-incubation step between the test peptide and the kinase prior to initiation of the reaction. The kinases are diluted in buffer (20 mM MOPS, 1 mM EDTA, 0.01% Brij-35, 5% Glycerol, 0.1% β-mercaptoethanol, 1 mg/mL BSA) prior to addition to the reaction mix.
# (§3) Positive control wells contain all components of the reaction, except the test peptide of interest. However, DMSO (at a final concentration of 2%) is included in positive control wells to control for solvent effects. Negative control wells contain all components of the reaction, with a reference inhibitor (staurosporine) replacing the test peptide. This abolishes kinase activity and establishes a base-line (0% kinase activity). Kinase assay protocols (Eurofins Pharma Discovery Services UK Ltd, Dundee Technology Park, Dundee, United Kingdom) are described below. Of the Src family kinases, only the assay protocol for c-Src is shown.
# (§4) PKG1b(h) is incubated with 8 mM MOPS pH 7.0, 0.2 mM EDTA, 10 μM cGMP, 200 μM RRRLSFAEPG, 10 mM magnesium acetate and [γ-^33P]-ATP (specific activity approx. 500 cpm/pmol, concentration as required). The reaction is initiated by the addition of the MgATP mix. After incubation for 40 minutes at room temperature, the reaction is stopped by the addition of 3% phosphoric acid solution. A 10 μL aliquot of the reaction is then spotted onto a P30 filtermat and washed three times for 5 mins in 75 mM phosphoric acid and once in methanol prior to drying and scintillation counting.
# [2] = target: T2, PKG1α (h) (Homo sapiens, UniProt Q13976); assay: PKG1α kinase activity assay, cell free
# T2 construct: purchased Eurofins Pharma Discovery Services UK Ltd (contract assay service)
# T2 sequence (Q13976 1-671): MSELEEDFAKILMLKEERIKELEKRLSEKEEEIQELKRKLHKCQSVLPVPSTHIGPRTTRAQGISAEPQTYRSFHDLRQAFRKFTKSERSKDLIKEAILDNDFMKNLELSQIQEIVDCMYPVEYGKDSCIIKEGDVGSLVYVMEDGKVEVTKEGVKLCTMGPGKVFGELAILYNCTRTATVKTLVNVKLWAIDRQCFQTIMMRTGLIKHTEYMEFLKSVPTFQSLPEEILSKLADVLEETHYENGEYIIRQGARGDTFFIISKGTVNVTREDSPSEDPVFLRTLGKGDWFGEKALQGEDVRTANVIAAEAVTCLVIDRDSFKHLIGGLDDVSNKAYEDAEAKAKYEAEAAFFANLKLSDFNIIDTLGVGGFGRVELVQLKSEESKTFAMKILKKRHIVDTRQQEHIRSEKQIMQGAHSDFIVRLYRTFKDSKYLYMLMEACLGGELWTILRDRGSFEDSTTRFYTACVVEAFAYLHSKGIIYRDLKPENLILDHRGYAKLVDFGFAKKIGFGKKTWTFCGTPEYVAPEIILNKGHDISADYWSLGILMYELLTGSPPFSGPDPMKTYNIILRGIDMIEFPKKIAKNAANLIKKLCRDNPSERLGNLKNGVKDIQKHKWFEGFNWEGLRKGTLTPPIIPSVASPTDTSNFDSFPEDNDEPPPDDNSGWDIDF
# Protocol: as §1, §2, §3
# as §4, with “PKG1α (h) is incubated” for “PKG1b(h) is incubated”, “200 μM peptide RRRLSFAEPG, 10” for “200 μM RRRLSFAEPG, 10”
# [3] = target: T3, c-Src (h) (Homo sapiens, UniProt P12931); assay: c-Src kinase activity assay, cell free
# T3 construct: purchased Eurofins Pharma Discovery Services UK Ltd (contract assay service)
# T3 sequence (P12931 whole entry): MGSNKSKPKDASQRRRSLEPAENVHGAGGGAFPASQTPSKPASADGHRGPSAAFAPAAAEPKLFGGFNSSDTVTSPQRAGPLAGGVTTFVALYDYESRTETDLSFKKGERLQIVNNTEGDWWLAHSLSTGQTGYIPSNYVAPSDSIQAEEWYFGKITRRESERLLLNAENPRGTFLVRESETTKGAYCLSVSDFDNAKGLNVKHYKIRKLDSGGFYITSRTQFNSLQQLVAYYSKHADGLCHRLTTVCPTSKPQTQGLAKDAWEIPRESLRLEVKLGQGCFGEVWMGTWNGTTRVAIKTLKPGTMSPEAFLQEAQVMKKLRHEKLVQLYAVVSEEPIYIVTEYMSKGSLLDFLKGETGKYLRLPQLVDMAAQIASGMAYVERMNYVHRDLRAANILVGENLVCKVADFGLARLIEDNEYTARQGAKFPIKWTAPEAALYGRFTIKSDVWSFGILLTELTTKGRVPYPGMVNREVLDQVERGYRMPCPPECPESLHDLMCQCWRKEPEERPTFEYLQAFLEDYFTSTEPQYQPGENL
# Protocol: as §1, §2, §3
# as §4, with “c-Src (h) is” for “PKG1b(h) is”, “EDTA, 250” for “EDTA, 10”, “μM KVEKIGEGTYGVVYK (Cdc2 peptide),” for “μM cGMP, 200 μM RRRLSFAEPG,”, “mM MgAcetate” for “mM magnesium acetate”, “5 minutes” for “5 mins”
# [4] = cell free, 10 μM cGMP, 40 minutes at room temperature, read-out: PKG1β IC50
# [5] = cell free, 10 μM cGMP, 40 minutes at room temperature, read-out: PKG1α IC50
# [6] = cell free, 40 minutes at room temperature, read-out: c-Src IC50
"IC50 [1, 4] [nM]","IC50 [2, 5] [nM]","IC50 [3, 6] [nM]",Molecule,IC50 [1] [nM],IC50 [2] [nM],IC50 [3] [nM]
9,16,7,"N=C(N)NCCC[C@H](NC(=O)[C@H](CCCNC(=N)N)NC(=O)[C@H](CCCNC(=N)N)NC(=O)[C@H](CCCNC(=N)N)NC(=O)[C@H](CCCNC(=N)N)NC(=O)[C@H](CCCNC(=N)N)NC(=O)[C@H](CCCNC(=N)N)NC(=O)[C@H](CCCNC(=N)N)NC(=O)[C@H](CCCNC(=N)N)NC(=O)[C@@H](N)CCCNC(=N)N)C(N)=O [IK00100, RRRRRRRRRR-NH2]",–,–,–
–,–,–,"NCCC[C@H](NC(=O)[C@H](CCCN)NC(=O)[C@H](CCCN)NC(=O)[C@H](CCCN)NC(=O)[C@H](CCCN)NC(=O)[C@H](CCCN)NC(=O)[C@H](CCCN)NC(=O)[C@H](CCCN)NC(=O)[C@H](CCCN)NC(=O)[C@@H](N)CCCN)C(N)=O [IKNOR10, OrnOrnOrnOrnOrnOrnOrnOrnOrnOrn-NH2, reference compound] (H-[Orn][Orn][Orn][Orn][Orn][Orn][Orn][Orn][Orn][Orn]-NH2; N-terminus assumed)",> 1000,> 1000,7
> 1000,> 1000,96,"KKKKKKKKKK-NH2 [IK00K00, KKKKKKKKKK-NH2, reference compound]",–,–,–
–,–,–,"N=C(N)NCCC[C@H](NC(=O)[C@H](CCCNC(=N)N)NC(=O)[C@H](CCCNC(=N)N)NC(=O)[C@H](CCCNC(=N)N)NC(=O)[C@H](CCCNC(=N)N)NC(=O)[C@H](CCCNC(=N)N)NC(=O)[C@H](CCCNC(=N)N)NC(=O)[C@H](CCCNC(=N)N)NC(=O)[C@H](CCCNC(=N)N)NC(=O)[C@H](CCCNC(=N)N)NC(=O)[C@H](CCCNC(=N)N)NC(=O)[C@H](CCCNC(=N)N)NC(=O)[C@H](CCCNC(=N)N)NC(=O)[C@@H](N)CCCNC(=N)N)C(=O)O [IK0140H, RRRRRRRRRRRRRR]",7,7,> 1000
4,6,4,"RRRRRRRRRRRRRRRR-NH2 [IK01600, RRRRRRRRRRRRRRRR-NH2]",–,–,–
> 1000,> 1000,> 1000,"HHHHHHHHHH-NH2 [IK00010, HHHHHHHHHH-NH2, reference compound]",–,–,–
457,> 1000,100,"N=C(N)NCCC[C@H](NC(=O)[C@H](CCCNC(=N)N)NC(=O)[C@H](CCCNC(=N)N)NC(=O)[C@H](CCCNC(=N)N)NC(=O)[C@H](CCCNC(=N)N)NC(=O)[C@@H](N)CCCNC(=N)N)C(N)=O [IK00600, RRRRRR-NH2]",–,–,–
22,33.5,4,"N=C(N)NCCC[C@H](NC(=O)[C@H](CCCNC(=N)N)NC(=O)[C@H](CCCNC(=N)N)NC(=O)[C@H](CCCNC(=N)N)NC(=O)[C@H](CCCNC(=N)N)NC(=O)[C@H](CCCNC(=N)N)NC(=O)[C@H](CCCNC(=N)N)NC(=O)[C@H](CCCNC(=N)N)NC(=O)[C@@H](N)CCCNC(=N)N)C(N)=O [IK00900, RRRRRRRRR-NH2]",–,–,–
55,75,26,"N=C(N)NCCC[C@H](NC(=O)[C@H](CCCNC(=N)N)NC(=O)[C@H](CCCNC(=N)N)NC(=O)[C@H](CCCNC(=N)N)NC(=O)[C@H](CCCNC(=N)N)NC(=O)[C@H](CCCNC(=N)N)NC(=O)[C@H](CCCNC(=N)N)NC(=O)[C@@H](N)CCCNC(=N)N)C(N)=O [IK00800, RRRRRRRR-NH2]",–,–,–
6,6,–,RRRRRRRRRRRRRRRRRRRR-NH2 [IK00200],–,–,–
–,–,–,"N=C(N)NCCC[C@H](NC(=O)[C@H](CCCNC(=N)N)NC(=O)[C@H](CCCNC(=N)N)NC(=O)[C@H](CCCNC(=N)N)NC(=O)[C@H](CCCNC(=N)N)NC(=O)[C@H](CCCNC(=N)N)NC(=O)[C@H](CCCNC(=N)N)NC(=O)[C@H](CCCNC(=N)N)NC(=O)[C@H](CCCNC(=N)N)NC(=O)[C@H](CCCNC(=N)N)NC(=O)[C@H](CCCNC(=N)N)NC(=O)[C@@H](N)CCCNC(=N)N)C(N)=O [IK01200, RRRRRRRRRRRR-NH2]",7,8,6
